The values below come from ChEMBL document CHEMBL1201862, “PubChem BioAssay data set” (2004).

For orientation: Ki means the dissociation constant of the complex between target and ligand, obtained from inhibition or displacement. For orientation: IC50 means the point on the concentration scale where inhibition reaches its midpoint. By AC50 is commonly meant the concentration giving half of the maximal activity seen. As a reminder, the CC50 is the concentration that lowers cell viability or growth by half.

Test [1] concerns the target Protein kinase C theta type (Homo sapiens, UniProt Q04759). Put plainly: Navigating the Kinome. Panel member name: PRKCQ. It counts as functional.
The target in test [2] is cGMP-dependent protein kinase 1 (Homo sapiens, UniProt Q13976). It counts as functional.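 Further: value from a kinome panel screen with PRKG1 as the panel member.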
Test [3] deals with Protein kinase C delta type (Homo sapiens, UniProt Q05655). It counts as functional.
The target of test [4] is ALK tyrosine kinase receptor (Homo sapiens, UniProt Q9UM73). It counts as functional.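 Further: ALK tested as one member of a kinase panel screen.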
Test [5] deals with Calcium/calmodulin-dependent protein kinase type II subunit gamma (Homo sapiens, UniProt Q13555). Format: functional.
The target of test [6] is Tyrosine-protein kinase receptor TYRO3 (Homo sapiens, UniProt Q06418). Format: functional.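 Further: TYRO3 value obtained as one member of a kinome-wide profiling panel.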
The target of test [7] is Serine/threonine-protein kinase D3 (Homo sapiens, UniProt O94806). Format: functional.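 Further: determined within a kinase panel screen, with PRKCN as the panel member.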
The target in test [8] is SRSF protein kinase 1 (Homo sapiens, UniProt Q96SB4). Format: functional.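 Further: measured as one member of a kinome-wide kinase profiling panel.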
Test [9] addresses Cell division cycle 7-related protein kinase (Homo sapiens, UniProt O00311). Format: functional.
Test [10] has as its target Serine/threonine-protein kinase PAK 4 (Homo sapiens, UniProt O96013). Format: functional.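 Further: value obtained within a kinome profiling panel in which PAK4 was one of the panel members.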
Test [11] concerns the target Casein kinase I isoform gamma-1 (Homo sapiens, UniProt Q9HCP0). It counts as functional.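 Further: measured as the CSNK1G1 member of a kinome profiling panel.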
The target of test [12] is Serine/threonine-protein kinase N2 (Homo sapiens, UniProt Q16513). Format: functional.
Test [13] addresses Serine/threonine-protein kinase pim-3 (Homo sapiens, UniProt Q86V86). It counts as functional.
For test [14], the target named is Receptor-type tyrosine-protein kinase FLT3 (Homo sapiens, UniProt P36888). Format: functional.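 Further: FLT3 was tested as one member of a kinome-wide kinase panel.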
For test [15], the target named is Casein kinase I isoform delta (Homo sapiens, UniProt P48730). It counts as functional.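 Further: measured as one member (CSNK1D) of a kinome panel.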
Test [16] addresses Vascular endothelial growth factor receptor 2 (Homo sapiens, UniProt P35968). Format: functional.
Test [17] addresses G protein-coupled receptor kinase 5 (Homo sapiens, UniProt P34947). The experiment in a line: Navigating the Kinome. Panel member name: GPRK5. Format: functional.
Test [18] has as its target Ephrin type-A receptor 2 (Homo sapiens, UniProt P29317). Format: functional.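 Further: EPHA2 tested as one member of a kinome-wide kinase panel.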
Test [19] addresses Interleukin-1 receptor-associated kinase 1 (Homo sapiens, UniProt P51617). It counts as functional.
For test [20], the target named is Maternal embryonic leucine zipper kinase (Homo sapiens, UniProt Q14680). It counts as functional.
Test [21] addresses Interleukin-1 receptor-associated kinase 4 (Homo sapiens, UniProt Q9NWZ3). Format: functional.
For test [22], the target named is RAC-alpha serine/threonine-protein kinase (Homo sapiens, UniProt P31749). It counts as functional.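 Further: AKT1 affinity measured as one member of a kinome-wide kinase profiling panel.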
The target of test [23] is Serine/threonine-protein kinase Nek2 (Homo sapiens, UniProt P51955). It counts as functional.
For test [24], the target named is Cyclin-dependent kinase 8 (Homo sapiens, UniProt P49336). The experiment in a line: Navigating the Kinome. Panel member name: CDK8. It counts as functional.
Test [25] concerns the target Cyclin-dependent kinase 9 (Homo sapiens, UniProt P50750). Format: functional.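 Further: value from the CDK9 entry of a kinome-spanning kinase panel.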
Test [26] deals with Mitogen-activated protein kinase 12 (Homo sapiens, UniProt P53778). Format: functional.
In test [27] the target is Serine/threonine-protein kinase MRCK alpha (Homo sapiens, UniProt Q5VT25). It counts as functional.
Test [28] addresses Macrophage colony-stimulating factor 1 receptor (Homo sapiens, UniProt P07333). Format: functional.
Test [29] concerns the target Serine/threonine-protein kinase BRSK1 (Homo sapiens, UniProt Q8TDC3). Format: functional.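 Further: measured within a kinome-wide kinase panel, with the target listed as KIAA1811.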
Test [30] addresses Inhibitor of nuclear factor kappa-B kinase subunit epsilon (Homo sapiens, UniProt Q14164). The experiment in a line: Navigating the Kinome. Panel member name: IKBKE. Format: functional.
Test [31] addresses Mitogen-activated protein kinase kinase kinase 10 (Homo sapiens, UniProt Q02779). Put plainly: Navigating the Kinome. Panel member name: MAP3K10. It counts as functional.
Test [32] concerns the target T1, Sentrin-specific protease 8 (Homo sapiens, UniProt Q96LD8).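 Further: kinetic enzyme assay of SENP8 cleaving a Nedd8 protein substrate, dose-response confirmation of screening hits.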
T1 sequence (Q96LD8 whole entry): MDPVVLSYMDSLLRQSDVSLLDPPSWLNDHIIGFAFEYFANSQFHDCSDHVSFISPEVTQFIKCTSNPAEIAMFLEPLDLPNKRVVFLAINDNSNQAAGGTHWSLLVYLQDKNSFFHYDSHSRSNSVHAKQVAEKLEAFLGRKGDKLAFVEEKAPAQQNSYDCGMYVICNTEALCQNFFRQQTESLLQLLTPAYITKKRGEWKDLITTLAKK
It counts as functional.

The target in test [33] is T2, Caspase-6 (Homo sapiens, UniProt P55212).
T2 sequence (P55212 whole entry): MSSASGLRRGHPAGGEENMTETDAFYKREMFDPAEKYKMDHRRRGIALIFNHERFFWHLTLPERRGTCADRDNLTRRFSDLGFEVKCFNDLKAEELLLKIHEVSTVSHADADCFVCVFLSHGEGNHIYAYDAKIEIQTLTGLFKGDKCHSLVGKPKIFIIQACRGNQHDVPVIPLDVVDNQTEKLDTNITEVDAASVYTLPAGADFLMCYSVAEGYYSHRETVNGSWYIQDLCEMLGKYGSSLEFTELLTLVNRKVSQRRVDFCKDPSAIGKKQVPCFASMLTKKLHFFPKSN
Put plainly: human caspase-6 inhibitors, dose response, biochemical, VEID-R110 fluorescence, cherry-pick (AID 720632).

The nature of test [34]: insulin promoter down-regulators in MIN6 cells, imaging, high-content screening, mouse beta cells (AID 1628). Format: functional.
Test [35] relates to HEK293. The experiment in a line: Fluorescence-based counterscreen for potentiators or agonists of NPY-Y1: cell-based high-throughput dose response assay for inhibitors of cyclic nucleotide gated ion channel (CNGC) activity. In this assay, the parental HEK293 cell line transfected with a cyclic-nucleotide gated ion channel (CNGC)-based cAMP sensor is used to measure inhibition of isoproterenol-induced CNGC …. Format: functional. Particulars: Homo sapiens.

The nature of test [36]: cytotoxicity in MIN6 insulinoma cells, dose response, cytotoxicity control, cell-based, mouse insulinoma (AID 2122).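 Further: confirmatory high-throughput counterscreen run to flag cytotoxic compounds; mouse MIN-6 beta cells carrying an insulin promoter eGFP reporter.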 It counts as functional.
Test [37] deals with Vero. Put plainly: Vero cell cytotoxicity, cytotoxicity control for flavivirus capping enzyme inhibitors (AID 588742). Format: functional. As to conditions: Chlorocebus sabaeus.
The target in test [38] is T3, Protein Tat (Human immunodeficiency virus type 1 group M subtype B (isolate HXB2)(HIV-1), UniProt P04608).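 Further: tat binding to TAR RNA read out by fluorescence polarization.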
T3 sequence (P04608 whole entry): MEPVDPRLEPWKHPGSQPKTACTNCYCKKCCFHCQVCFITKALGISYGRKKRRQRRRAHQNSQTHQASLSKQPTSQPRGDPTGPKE
Format: functional.

Each structure is given as a SMILES string. Activity calls are given as the source filed them. Bounds are passed on as bounds.

Vascular endothelial growth factor receptor 2, sequence (P35968 whole entry): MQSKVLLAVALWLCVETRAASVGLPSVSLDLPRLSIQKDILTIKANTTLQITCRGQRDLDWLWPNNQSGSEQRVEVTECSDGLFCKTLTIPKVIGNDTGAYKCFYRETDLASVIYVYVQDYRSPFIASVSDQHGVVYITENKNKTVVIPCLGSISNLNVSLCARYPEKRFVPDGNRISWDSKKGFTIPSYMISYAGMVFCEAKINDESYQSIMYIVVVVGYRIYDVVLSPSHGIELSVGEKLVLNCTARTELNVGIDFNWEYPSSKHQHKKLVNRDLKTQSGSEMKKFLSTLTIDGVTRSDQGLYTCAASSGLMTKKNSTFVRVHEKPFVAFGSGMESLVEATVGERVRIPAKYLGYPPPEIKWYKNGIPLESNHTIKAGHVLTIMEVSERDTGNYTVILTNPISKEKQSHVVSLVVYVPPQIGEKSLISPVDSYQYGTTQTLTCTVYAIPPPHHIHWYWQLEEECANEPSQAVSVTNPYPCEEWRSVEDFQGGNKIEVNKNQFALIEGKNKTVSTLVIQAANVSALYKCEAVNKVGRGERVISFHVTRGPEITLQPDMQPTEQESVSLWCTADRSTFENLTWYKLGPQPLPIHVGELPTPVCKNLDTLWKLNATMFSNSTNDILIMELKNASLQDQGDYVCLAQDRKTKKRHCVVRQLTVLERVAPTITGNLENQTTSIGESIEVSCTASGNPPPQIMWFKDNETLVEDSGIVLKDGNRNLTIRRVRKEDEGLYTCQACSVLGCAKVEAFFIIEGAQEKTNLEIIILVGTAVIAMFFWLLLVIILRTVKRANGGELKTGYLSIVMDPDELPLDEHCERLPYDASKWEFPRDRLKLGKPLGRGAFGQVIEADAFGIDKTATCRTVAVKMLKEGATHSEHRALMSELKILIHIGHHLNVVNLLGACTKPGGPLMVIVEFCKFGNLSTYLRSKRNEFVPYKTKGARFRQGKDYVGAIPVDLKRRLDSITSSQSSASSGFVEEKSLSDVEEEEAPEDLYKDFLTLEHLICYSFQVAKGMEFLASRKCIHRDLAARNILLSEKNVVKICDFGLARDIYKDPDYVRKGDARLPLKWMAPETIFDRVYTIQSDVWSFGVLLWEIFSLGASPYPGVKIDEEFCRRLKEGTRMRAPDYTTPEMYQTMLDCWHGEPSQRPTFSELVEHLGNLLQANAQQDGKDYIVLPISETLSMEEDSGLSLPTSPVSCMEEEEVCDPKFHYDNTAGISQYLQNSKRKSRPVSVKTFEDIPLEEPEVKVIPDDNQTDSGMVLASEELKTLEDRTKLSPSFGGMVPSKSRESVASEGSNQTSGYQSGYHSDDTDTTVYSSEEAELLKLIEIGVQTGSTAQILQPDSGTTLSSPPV
Interleukin-1 receptor-associated kinase 1, sequence (P51617 whole entry): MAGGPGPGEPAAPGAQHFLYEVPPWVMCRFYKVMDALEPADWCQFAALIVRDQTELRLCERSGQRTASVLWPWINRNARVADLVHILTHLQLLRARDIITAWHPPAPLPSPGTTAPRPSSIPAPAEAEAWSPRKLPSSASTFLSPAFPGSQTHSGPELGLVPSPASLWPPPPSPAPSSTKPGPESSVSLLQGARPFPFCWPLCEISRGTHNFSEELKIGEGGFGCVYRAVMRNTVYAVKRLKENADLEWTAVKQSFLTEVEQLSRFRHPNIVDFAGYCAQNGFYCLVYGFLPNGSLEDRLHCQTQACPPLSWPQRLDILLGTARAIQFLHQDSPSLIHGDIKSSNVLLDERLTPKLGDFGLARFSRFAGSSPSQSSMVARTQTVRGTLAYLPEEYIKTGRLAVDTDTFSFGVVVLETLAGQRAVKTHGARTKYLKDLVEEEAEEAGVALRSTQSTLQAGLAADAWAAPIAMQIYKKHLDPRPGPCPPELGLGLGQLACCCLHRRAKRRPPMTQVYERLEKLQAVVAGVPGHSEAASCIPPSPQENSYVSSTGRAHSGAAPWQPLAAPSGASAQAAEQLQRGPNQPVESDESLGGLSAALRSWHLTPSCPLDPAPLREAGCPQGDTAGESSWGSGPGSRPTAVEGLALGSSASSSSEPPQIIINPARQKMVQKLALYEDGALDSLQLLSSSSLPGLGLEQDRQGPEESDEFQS
Interleukin-1 receptor-associated kinase 4, sequence (Q9NWZ3 whole entry): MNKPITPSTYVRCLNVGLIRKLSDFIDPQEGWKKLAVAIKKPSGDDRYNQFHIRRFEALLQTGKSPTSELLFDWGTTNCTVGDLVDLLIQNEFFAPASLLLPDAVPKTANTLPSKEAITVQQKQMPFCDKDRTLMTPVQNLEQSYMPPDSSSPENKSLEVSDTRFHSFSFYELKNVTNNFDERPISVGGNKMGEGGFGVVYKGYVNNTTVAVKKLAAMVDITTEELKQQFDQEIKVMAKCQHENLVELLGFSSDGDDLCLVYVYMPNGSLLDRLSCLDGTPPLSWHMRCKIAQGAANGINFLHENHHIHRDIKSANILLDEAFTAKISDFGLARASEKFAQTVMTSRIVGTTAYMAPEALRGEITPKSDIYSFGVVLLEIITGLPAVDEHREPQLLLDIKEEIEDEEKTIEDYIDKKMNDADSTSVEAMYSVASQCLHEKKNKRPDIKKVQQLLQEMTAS
Inhibitor of nuclear factor kappa-B kinase subunit epsilon, sequence (Q14164 whole entry): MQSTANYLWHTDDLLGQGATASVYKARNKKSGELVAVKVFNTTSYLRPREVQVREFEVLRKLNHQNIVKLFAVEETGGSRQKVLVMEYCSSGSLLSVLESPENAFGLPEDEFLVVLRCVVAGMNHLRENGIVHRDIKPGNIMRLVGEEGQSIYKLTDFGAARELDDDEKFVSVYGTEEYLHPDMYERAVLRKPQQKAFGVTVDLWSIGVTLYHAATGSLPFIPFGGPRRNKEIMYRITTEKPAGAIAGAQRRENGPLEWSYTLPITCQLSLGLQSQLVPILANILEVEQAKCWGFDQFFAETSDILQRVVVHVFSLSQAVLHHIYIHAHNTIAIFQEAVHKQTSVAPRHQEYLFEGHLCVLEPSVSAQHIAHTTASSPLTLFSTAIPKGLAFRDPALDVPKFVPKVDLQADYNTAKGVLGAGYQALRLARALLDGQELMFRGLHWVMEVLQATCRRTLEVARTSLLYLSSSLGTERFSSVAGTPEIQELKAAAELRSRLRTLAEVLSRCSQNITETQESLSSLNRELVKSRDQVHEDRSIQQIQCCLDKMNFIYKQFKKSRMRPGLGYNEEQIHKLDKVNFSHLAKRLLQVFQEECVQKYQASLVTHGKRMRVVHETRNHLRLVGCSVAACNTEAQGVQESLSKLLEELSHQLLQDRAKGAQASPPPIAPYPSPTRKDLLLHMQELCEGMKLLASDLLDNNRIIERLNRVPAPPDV
Cyclin-dependent kinase 9, sequence (P50750 whole entry): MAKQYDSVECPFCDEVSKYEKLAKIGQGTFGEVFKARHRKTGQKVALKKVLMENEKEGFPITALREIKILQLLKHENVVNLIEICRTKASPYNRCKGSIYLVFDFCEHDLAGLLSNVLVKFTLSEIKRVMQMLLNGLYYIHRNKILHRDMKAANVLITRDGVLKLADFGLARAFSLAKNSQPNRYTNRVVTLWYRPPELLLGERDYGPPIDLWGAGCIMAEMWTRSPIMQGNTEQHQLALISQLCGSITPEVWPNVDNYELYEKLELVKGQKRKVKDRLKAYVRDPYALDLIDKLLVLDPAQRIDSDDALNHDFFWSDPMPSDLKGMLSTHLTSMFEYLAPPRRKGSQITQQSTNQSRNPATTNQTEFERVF
G protein-coupled receptor kinase 5, sequence (P34947 whole entry): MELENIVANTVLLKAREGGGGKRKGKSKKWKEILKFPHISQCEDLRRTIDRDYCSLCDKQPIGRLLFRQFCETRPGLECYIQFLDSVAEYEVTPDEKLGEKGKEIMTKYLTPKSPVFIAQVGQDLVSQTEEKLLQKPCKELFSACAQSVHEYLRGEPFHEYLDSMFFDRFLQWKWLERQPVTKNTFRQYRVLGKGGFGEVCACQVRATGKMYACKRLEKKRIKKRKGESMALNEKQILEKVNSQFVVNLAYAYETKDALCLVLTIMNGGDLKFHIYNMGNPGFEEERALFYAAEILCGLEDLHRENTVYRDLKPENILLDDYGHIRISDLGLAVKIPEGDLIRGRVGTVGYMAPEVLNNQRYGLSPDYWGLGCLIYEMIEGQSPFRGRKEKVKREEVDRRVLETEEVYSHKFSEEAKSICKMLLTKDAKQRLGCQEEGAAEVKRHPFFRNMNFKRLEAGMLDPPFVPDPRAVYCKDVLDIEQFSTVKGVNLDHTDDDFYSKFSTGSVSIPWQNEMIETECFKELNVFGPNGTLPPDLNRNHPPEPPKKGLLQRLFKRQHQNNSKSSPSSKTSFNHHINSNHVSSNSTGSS
Serine/threonine-protein kinase Nek2, sequence (P51955 whole entry): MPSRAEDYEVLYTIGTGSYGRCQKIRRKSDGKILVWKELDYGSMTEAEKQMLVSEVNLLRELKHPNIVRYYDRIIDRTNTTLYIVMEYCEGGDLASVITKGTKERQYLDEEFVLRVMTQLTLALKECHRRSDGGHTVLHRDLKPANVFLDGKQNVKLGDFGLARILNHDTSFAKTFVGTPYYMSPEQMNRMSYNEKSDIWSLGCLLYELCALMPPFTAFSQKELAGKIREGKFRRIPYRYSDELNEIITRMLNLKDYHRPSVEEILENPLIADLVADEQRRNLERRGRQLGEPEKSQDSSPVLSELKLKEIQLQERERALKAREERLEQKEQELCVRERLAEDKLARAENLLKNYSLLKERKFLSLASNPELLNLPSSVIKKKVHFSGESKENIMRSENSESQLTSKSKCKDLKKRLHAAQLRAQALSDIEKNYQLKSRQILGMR

Consider `OC1CCC(Nc2cc(Cl)nc(-c3c[nH]c4ncccc34)n2)CC1` (stereo not drawn), for which the Ki in [1] is 0.1 µM (active); in test [2], > 1.26 µM (inactive); in [3] it was 0.126 µM (active); in test [4] it was > 2.51 µM (inactive); in test [5], 0.794 µM (active); in [6], > 2.51 µM (inactive). The Ki was 0.158 µM (active) in [7]; > 7.94 µM (inactive) in test [8]; 0.001 µM (active) in test [9]; 0.1 µM (active) in test [10]; 3.16 µM (active) in test [11]; 0.0126 µM (active) in test [12]. Besides, the Ki is 1.26 µM (active) in [13]; 1 µM (active) in [14]; 0.2 µM (active) in test [15]; 1.26 µM (active) in test [16]; > 3.98 µM (inactive) in test [17]; > 3.16 µM (inactive) in test [18]. Further, the Ki in test [19] was 1.26 µM (active); in [20], 0.2 µM (active); in test [21], 0.316 µM (active); in [22] it was > 5.01 µM (inactive); in [23], 3.98 µM (active); in [24] it was 0.501 µM (active). The Ki in [25] was 0.251 µM (active); in test [26], 1.58 µM (active); in test [27] it was 0.02 µM (active); in test [28], 0.2 µM (active); in [29], 1.26 µM (active); in test [30], > 3.16 µM (inactive). Further, the Ki in test [31] was 0.0794 µM (active).
Take `O=C(COC(=O)c1ccc([N+](=O)[O-])s1)NCCc1ccccc1`: the IC50 in test [32] was 3.23 µM (active). For the same compound, in test [33], the AC50 is 11 µM (active).
For `COCC/N=c1\scc(-c2cccs2)n1/N=C/c1ccc(O)c(O)c1O`, the IC50 in [34] was > 16 µM (inactive); in test [35], > 11.8 µM (not active); in test [36], > 16 µM (inactive); in [38], > 100 µM (inconclusive). For the same compound, the half-maximal cytotoxic concentration (CC50) in test [37] is 22.8 µM (active).
